In ChEMBL document CHEMBL1201862, “PubChem BioAssay data set” (2004):
The source made the active and inactive calls. Cut-off read from the data, not from the text of the source, for most assays here: actives have a measured IC50 and inactives only a lower limit.

How the values were obtained:
[1] = target: T1, Tyrosine-protein phosphatase non-receptor type 7 (Homo sapiens, UniProt P35236); test: redox-active compounds inhibiting HePTP phosphatase – biochemical, fluorescence, mechanism study (AID 2068); type: functional
T1 sequence (P35236 whole entry): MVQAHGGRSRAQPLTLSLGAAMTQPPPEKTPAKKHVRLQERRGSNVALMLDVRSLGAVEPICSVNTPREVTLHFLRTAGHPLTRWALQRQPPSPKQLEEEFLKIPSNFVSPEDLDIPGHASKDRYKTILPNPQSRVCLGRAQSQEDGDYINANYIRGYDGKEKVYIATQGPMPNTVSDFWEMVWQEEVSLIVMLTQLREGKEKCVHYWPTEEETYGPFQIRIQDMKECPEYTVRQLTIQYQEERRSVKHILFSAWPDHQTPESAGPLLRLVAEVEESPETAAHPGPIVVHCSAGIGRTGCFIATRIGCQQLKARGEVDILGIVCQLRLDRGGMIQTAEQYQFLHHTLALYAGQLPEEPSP

[2] = target: T2, Dual specificity protein phosphatase 6 (Rattus norvegicus, UniProt Q64346); type: functional;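 note: confirmatory in vitro dose-response testing of MKP-3 inhibition; recombinant His-tagged MKP-3 made in E. coli BL21 with OMFP substrate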
T2 sequence (Q64346 whole entry): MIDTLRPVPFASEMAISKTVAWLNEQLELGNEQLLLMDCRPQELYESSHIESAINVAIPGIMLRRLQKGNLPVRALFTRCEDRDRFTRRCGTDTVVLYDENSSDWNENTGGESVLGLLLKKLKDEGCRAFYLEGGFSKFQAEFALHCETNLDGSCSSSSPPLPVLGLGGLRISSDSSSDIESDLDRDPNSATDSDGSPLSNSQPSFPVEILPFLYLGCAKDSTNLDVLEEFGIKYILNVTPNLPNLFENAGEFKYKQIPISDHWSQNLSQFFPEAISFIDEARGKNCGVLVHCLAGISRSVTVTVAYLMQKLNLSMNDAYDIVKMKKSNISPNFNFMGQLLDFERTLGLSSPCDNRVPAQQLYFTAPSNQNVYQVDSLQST

[3] = target: Hexokinase (Trypanosoma brucei, UniProt Q38C41); test: Confirmation assay for inhibitors of Trypanosoma brucei hexokinase 1-Analogue-first series. [Related pubchem assays (depositor defined):AID1430, AID1632, AID2516, AID2560, AID2579, AID2600, AID449725, AID492951]; type: functional
[4] = target: Alkaline phosphatase, placental type (Homo sapiens, UniProt P05187); test: human placental alkaline phosphatase inhibition – biochemical, luminescence, confirmation (AID 1512); type: functional
[5] = target: T3, Alkaline phosphatase, tissue-nonspecific isozyme (Homo sapiens, UniProt P05186); test: potency against alkaline phosphatase TNAP – biochemical, luminescent, dose response, SAR follow-up (AID 1056)
T3 sequence (P05186 whole entry): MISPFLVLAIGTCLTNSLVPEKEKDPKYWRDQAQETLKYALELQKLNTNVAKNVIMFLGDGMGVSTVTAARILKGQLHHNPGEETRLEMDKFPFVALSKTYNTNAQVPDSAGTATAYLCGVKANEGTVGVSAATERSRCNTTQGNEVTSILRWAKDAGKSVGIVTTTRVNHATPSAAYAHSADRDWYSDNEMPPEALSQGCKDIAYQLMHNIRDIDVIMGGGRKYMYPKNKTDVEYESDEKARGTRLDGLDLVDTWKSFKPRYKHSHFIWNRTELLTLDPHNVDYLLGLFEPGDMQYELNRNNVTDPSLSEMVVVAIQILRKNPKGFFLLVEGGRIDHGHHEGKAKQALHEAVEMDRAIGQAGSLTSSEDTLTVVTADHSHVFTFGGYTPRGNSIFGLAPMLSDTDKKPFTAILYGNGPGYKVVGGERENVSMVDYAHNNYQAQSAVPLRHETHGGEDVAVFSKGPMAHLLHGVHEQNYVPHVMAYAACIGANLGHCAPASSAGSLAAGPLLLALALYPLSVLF

Hexokinase, sequence (Q38C41 whole entry): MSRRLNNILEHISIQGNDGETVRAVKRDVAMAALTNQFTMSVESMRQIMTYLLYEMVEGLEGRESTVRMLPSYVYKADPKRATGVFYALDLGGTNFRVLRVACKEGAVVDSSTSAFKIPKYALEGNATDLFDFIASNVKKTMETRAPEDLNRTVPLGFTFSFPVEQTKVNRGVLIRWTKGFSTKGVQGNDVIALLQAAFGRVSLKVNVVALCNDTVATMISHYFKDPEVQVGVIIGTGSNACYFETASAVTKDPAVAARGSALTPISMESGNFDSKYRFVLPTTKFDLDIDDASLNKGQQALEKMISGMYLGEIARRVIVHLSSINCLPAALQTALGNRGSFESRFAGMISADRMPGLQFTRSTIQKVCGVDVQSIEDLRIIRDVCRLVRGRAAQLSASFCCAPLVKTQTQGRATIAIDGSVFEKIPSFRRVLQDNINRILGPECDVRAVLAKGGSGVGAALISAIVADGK
Alkaline phosphatase, placental type, sequence (P05187 whole entry): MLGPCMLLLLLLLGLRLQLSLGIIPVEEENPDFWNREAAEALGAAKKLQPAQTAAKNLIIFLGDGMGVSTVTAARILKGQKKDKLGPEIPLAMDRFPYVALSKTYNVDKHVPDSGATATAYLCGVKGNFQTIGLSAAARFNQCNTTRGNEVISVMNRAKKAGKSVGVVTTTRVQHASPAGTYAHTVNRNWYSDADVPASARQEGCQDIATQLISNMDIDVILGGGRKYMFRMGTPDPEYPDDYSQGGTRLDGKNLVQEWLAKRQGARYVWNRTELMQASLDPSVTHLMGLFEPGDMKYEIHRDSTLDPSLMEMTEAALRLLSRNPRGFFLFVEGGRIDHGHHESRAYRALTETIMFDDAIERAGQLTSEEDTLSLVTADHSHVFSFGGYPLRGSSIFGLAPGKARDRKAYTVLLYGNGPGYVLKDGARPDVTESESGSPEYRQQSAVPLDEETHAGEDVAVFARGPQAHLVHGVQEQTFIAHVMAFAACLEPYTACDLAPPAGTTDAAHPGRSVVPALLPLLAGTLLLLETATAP

SMILES	IC50 [1]	IC50 [2]	IC50 [3]	other results
COc1cccc(CC(=O)Nc2cc(Cl)ccc2C(=O)O)c1	–	–	> 25 µM (inactive)	–
O=C(Cn1cnnn1)c1ccc(O)c(O)c1	–	–	–	IC50 [4]: 16.4 µM (active); IC50 [5]: > 100 µM (inactive)
O=C(Cn1sc2ccccc2c1=O)Nc1ccccc1C(F)(F)F	–	–	> 25 µM (inactive)	–

The next lines start with results.

IC50 [1]	IC50 [2]	SMILES	IC50 [3]	other results
13.1 µM (active)	> 100 µM (inactive)	COc1cc(C(=S)NC(C)(C)C)ccc1O	–	–
0.766 µM (active)	> 100 µM (inactive)	CCC(CC)NC(=S)c1ccc(O)c(OC)c1	–	–
